Data as given in the supplement of paper PMC10307832.

Columns and labels:
Test in all cases: relative viability (nuclei count vs DMSO), 5 days (fraction); higher = more cells survive
Cediranib + Pemetrexed = compound: COc1cc2c(Oc3ccc4[nH]c(C)cc4c3F)ncnc2cc1OCCCN1CCCC1 [Cediranib] + Nc1nc2[nH]cc(CCc3ccc(C(=O)N[C@@H](CCC(=O)O)C(=O)O)cc3)c2c(=O)[nH]1 [Pemetrexed] (partner 0.2 µM)
Method in brief: (§1)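 Nuclei were stained with Hoechst during a one-step fixation (final 0.05% Triton X-100, 1% formaldehyde, 1 ug/ml Hoechst) carried out 5 days after dosing, then counted on 4× images. The cells, lung cancer lines in 1536-well plates, had been dosed by pin tool the day after seeding with one drug alone or a fixed anchor-drug dose plus five library-drug doses (not always all listed) in √10 steps. Relative viability is the nuclei count in treated wells divided by that in vehicle wells, and each value is the median of duplicate plates.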

Halofuginone + OSI-027 = compound: O=C(C[C@H]1NCCC[C@@H]1O)Cn1cnc2cc(Br)c(Cl)cc2c1=O (racemic) [Halofuginone] + COc1cccc2cc(-c3nc([C@H]4CC[C@H](C(=O)O)CC4)n4ncnc(N)c34)[nH]c12 [OSI-027] (partner 0.5 µM)
Method in brief: as §1

Cediranib + Pictilisib = compound: COc1cc2c(Oc3ccc4[nH]c(C)cc4c3F)ncnc2cc1OCCCN1CCCC1 [Cediranib] + CS(=O)(=O)N1CCN(Cc2cc3nc(-c4cccc5[nH]ncc45)nc(N4CCOCC4)c3s2)CC1 [Pictilisib] (partner 1 µM)
Method in brief: as §1

[1] = compound: O=C(C[C@H]1NCCC[C@@H]1O)Cn1cnc2cc(Br)c(Cl)cc2c1=O (racemic) [Halofuginone] + C[C@]1(O)C[C@@H](c2nc(-c3ccc4ccc(-c5ccccc5)nc4c3)c3c(N)nccn32)C1 [Linsitinib] (partner 1 µM)
Method in brief: as §1

Cell Line | relative viability (Cediranib + Pemetrexed; first compound 0.04 µM) | relative viability (Cediranib + Pemetrexed; first compound 0.1265 µM) | relative viability (Cediranib + Pemetrexed; first compound 0.4 µM) | relative viability (Cediranib + Pemetrexed; first compound 1.265 µM) | relative viability (Cediranib + Pemetrexed; first compound 4 µM) | relative viability (Halofuginone + OSI-027; first compound 0.001 µM) | relative viability (Halofuginone + OSI-027; first compound 0.003162 µM) | relative viability (Halofuginone + OSI-027; first compound 0.01 µM) | relative viability (Halofuginone + OSI-027; first compound 0.03162 µM) | relative viability (Halofuginone + OSI-027; first compound 0.1 µM) | relative viability (Cediranib + Pictilisib; first compound 0.04 µM) | relative viability (Cediranib + Pictilisib; first compound 0.1265 µM) | relative viability (Cediranib + Pictilisib; first compound 0.4 µM) | relative viability (Cediranib + Pictilisib; first compound 1.265 µM) | relative viability (Cediranib + Pictilisib; first compound 4 µM) | relative viability ([1]; first compound 0.001 µM) | relative viability ([1]; first compound 0.003162 µM) | relative viability ([1]; first compound 0.01 µM) | relative viability ([1]; first compound 0.03162 µM) | relative viability ([1]; first compound 0.1 µM)
HCC-78 | 0.912 | 0.879 | 0.901 | 0.899 | 0.901 | 0.347 | 0.334 | 0.363 | 0.396 | 0.407 | 0.24 | 0.204 | 0.21 | 0.174 | 0.187 | 0.479 | 0.579 | 0.484 | 0.706 | 0.312
HCC-366 | 0.491 | 0.161 | 0.149 | 0.18 | 0.173 | 1.33 | 1.02 | 0.857 | 0.892 | 0.567 | 0.138 | 0.148 | 0.127 | 0.0996 | 0.17 | 0.638 | 0.69 | 0.692 | 0.618 | 0.126
HCC-827 | 0.31 | 0.235 | 0.231 | 0.259 | 0.259 | 0.746 | 0.783 | 0.76 | 0.902 | 0.742 | 1.1 | – | 0.955 | 0.944 | 0.97 | 0.968 | 0.983 | 0.978 | 1.02 | 0.892
HOP-62 | 0.576 | 0.305 | 0.252 | 0.39 | 0.313 | 0.782 | 0.803 | 0.826 | 0.727 | 0.576 | 0.813 | – | 0.578 | 0.413 | 1.16 | 1.1 | 1.07 | 1.09 | 0.95 | 0.302
IA-LM | – | – | – | – | – | – | – | – | – | – | 0.369 | 0.577 | 0.315 | 0.406 | 0.361 | 0.735 | 0.78 | 0.547 | 0.775 | 0.434
LC-2-ad | 0.289 | 0.3 | 0.278 | 0.298 | 0.275 | 0.903 | 0.888 | 0.746 | 0.889 | 0.608 | 0.655 | 0.567 | 0.411 | 0.395 | 0.201 | 0.843 | 0.796 | 0.763 | 0.818 | 0.264
LCLC-97TM1 | 0.205 | – | 0.154 | 0.218 | 0.177 | 0.674 | 0.612 | 0.597 | 0.566 | 0.358 | 0.174 | – | 0.168 | 0.122 | 0.248 | 0.209 | 0.189 | 0.187 | 0.179 | 0.163
LCLC-103H | 0.502 | 0.477 | 0.514 | 0.427 | 0.475 | 0.474 | 0.447 | 0.446 | 0.428 | 0.451 | 0.63 | 0.754 | 0.619 | 0.654 | 0.56 | 1.12 | 1.48 | 1.04 | 1.09 | 1.01
LK-2 | 0.324 | 0.202 | 0.247 | 0.177 | 0.209 | 0.24 | 0.237 | 0.201 | 0.221 | 0.167 | 0.607 | 0.524 | 0.573 | 0.591 | 0.319 | 0.722 | 0.656 | 0.433 | 0.609 | 0.452
LOU-NH91 | 0.447 | 0.347 | 0.357 | 0.337 | 0.36 | 0.733 | 0.732 | 0.748 | 0.741 | 0.692 | 0.534 | 0.473 | 0.494 | 0.479 | 0.495 | 0.97 | 0.977 | 0.97 | 0.977 | 0.842
LU99A | 0.173 | – | 0.172 | 0.2 | 0.17 | 0.36 | 0.32 | 0.281 | 0.288 | 0.254 | 0.354 | – | 0.314 | 0.276 | 0.36 | 0.634 | 0.477 | 0.522 | 0.515 | 0.45
NCI-H522 | 1.16 | 0.713 | 1.14 | 0.863 | 0.995 | 0.734 | 0.707 | 0.721 | 0.689 | 0.605 | – | – | – | – | – | – | – | – | – | –
NCI-H727 | – | – | – | – | – | 0.6 | 0.572 | 0.713 | 0.709 | 0.411 | 0.515 | 0.169 | 0.289 | 0.325 | 0.3 | 0.324 | 0.427 | 0.415 | 0.243 | 0.132
NCI-H1299 | – | – | – | – | – | – | – | – | – | – | 0.866 | 0.844 | 0.719 | 0.853 | 0.748 | 1.01 | 1.23 | 0.972 | 0.955 | 0.732
NCI-H1623 | – | – | – | – | – | 0.536 | 0.455 | 0.436 | 0.517 | 0.423 | – | – | – | – | – | – | – | – | – | –
NCI-H1648 | 0.563 | 0.551 | 0.617 | 0.634 | 0.372 | 0.247 | 0.217 | 0.242 | 0.275 | 0.262 | – | – | – | – | – | – | – | – | – | –
NCI-H1650 | 0.394 | 0.364 | 0.38 | 0.349 | 0.384 | 0.653 | 0.634 | 0.639 | 0.774 | 0.141 | 0.61 | 0.234 | 0.494 | 0.468 | 0.383 | – | – | – | – | –
NCI-H1703 | – | – | – | – | – | – | – | – | – | – | 0.226 | 0.209 | 0.209 | 0.194 | 0.221 | 0.944 | 1.03 | 0.617 | 0.559 | 0.353
NCI-H2170 | 0.295 | – | 0.233 | 0.264 | 0.258 | 0.699 | 0.714 | 0.738 | 0.651 | 0.659 | 0.259 | 0.275 | 0.306 | 0.254 | 0.301 | – | – | – | – | –
NCI-H2342 | 0.764 | 0.808 | 0.805 | 0.681 | 0.797 | 0.565 | 0.622 | 0.574 | 0.7 | 0.618 | – | – | – | – | – | – | – | – | – | –
SW 900 | 0.52 | 0.509 | 0.463 | 0.46 | 0.537 | 0.68 | 0.628 | 0.518 | 0.494 | 0.293 | – | – | – | – | – | – | – | – | – | –
